Measurements: US20240400512A1, “ANALOGS OF N,N,N-TRIMETHYL-4-PHOSPHORYLOXYTRYPTAMINE” (Terran Biosciences Inc., priority 2021, published 2024)

Experiment: Metabolic stability in human liver microsomes
Format: in vitro ADME
Details: for in vitro clearance compared with 4-OH-Trimethyltryptamine iodide (reference compound A) / in vitro clearance compared with 4-OH-Dimethylethyltryptamine iodide (reference compound B) / half-life and intrinsic clearance compared to the respective reference compounds: based on Table 2; for half-life at 0.25 μM / microsomal CLint at 0.25 μM: pH 7.4, NADPH; for half-life at 0.25 μM / microsomal CLint at 0.25 μM / CLint (μL/min/mg protein) / t1/2: 37° C.; for microsomal CLint at 0.25 μM: read-out: CLint (μL/min/mg protein); for Minus cofactor control (% of 0 min): incubation without cofactor, comment: possible chemical instability or non-cofactor dependent enzymatic degradation; for CLint (μL/min/mg protein) / t1/2: NADPH
Procedure: Microsomal Assay: Human liver microsomes (20 mg/mL) are obtained. B-nicotinamide adenine dinucleotide phosphate, reduced form (NADPH), magnesium chloride (MgCl2), and dimethyl sulfoxide (DMSO) are purchased from Sigma-Aldrich.
Determination of Metabolic Stability: 7.5 mM stock solutions of test compounds are prepared in DMSO. […] The diluted microsomes are added to wells of a 96-well deep-well polypropylene plate in triplicate. […] Reactions are initiated by addition of pre-warmed NADPH solution. The final reaction volume is 0.5 mL and contains 4.0 mg/mL human liver microsomes, 0.25 μM test compound, 2 mM NADPH in 0.1 M potassium phosphate buffer, pH 7.4, and 3 mM MgCl2. The reaction mixtures are incubated at 37° C., and 50 pL aliquots are removed at 0, 5, 10, 20, and 30 min or other suitable interval and added to shallow-well 96-well plates containing 50 pL of ice-cold CAN (acetonitrile) with internal standard to stop the reactions. The plates are stored at 4° C. for 20 minutes after which 100 pL of water is added to the wells of the plate before centrifugation to pellet precipitated proteins. Supernatants are transferred to another 96-well plate and analysed for amounts of the test compound remaining by LC-MS/MS using, for example, an Applied Bio-systems API 4000®) mass spectrometer. The same procedure is followed for the non-deuterated counterparts of the test compounds and for the positive control, 7-ethoxy coumarin (1 μM). Testing can be done in triplicate.
Data analysis: The in vitro T1/2s for the test compounds is calculated from the slopes of the linear regression of % test compound remaining (In) vs incubation time.
where k=−[slope of linear regression of % parent remaining (In) vs incubation time. The apparent intrinsic clearance is calculated using the following equation: […]
Data analysis can be performed using Microsoft Excel® Software.

| Compound | in vitro clearance compared with 4-OH-Trimethyltryptamine iodide (reference compound A) | half-life at 0.25 μM | microsomal CLint at 0.25 μM | in vitro clearance compared with 4-OH-Dimethylethyltryptamine iodide (reference compound B) | half-life and intrinsic clearance compared to the respective reference compounds | Minus cofactor control (% of 0 min) | CLint (μL/min/mg protein) | t1/2 |
| --- | --- | --- | --- | --- | --- | --- | --- | --- |
| [2H]C([2H])(c1c[nH]c2cccc(O)c12)C([2H])([2H])[N+](C)(C)C.[I-] [Compound 1, 4-Hydroxy-3-(2-(trimethyl-λ^4-azaneyl)ethyl-1,1,2,2-d4)-1H-indole iodide] | significantly lower in vitro clearance | 4.12 h | 5.6 µL/min/mg |  |  |  |  |  |
| [2H]C([2H])(c1c[nH]c2cccc(O)c12)C([2H])([2H])[N+](C)(C)CC.[I-] [Compound 2, 3-(2-(Ethyldimethyl-λ^4-azaneyl)ethyl-1,1,2,2-d4)-4-hydroxy-1H-indole iodide] |  | 8.23 h | 2.81 µL/min/mg | significantly lower in vitro clearance |  |  |  |  |
| [2H]C([2H])(c1c[nH]c2cccc(O)c12)C([2H])([2H])[N+](C)(C)CCC.[I-] [Compound 3, 3-(2-(Dimethyl(propyl)-λ^4-azaneyl)ethyl-1,1,2,2-d4)-4-hydroxy-1H-indole iodide] |  | 16.2 h | 1.42 µL/min/mg |  |  |  |  |  |
| [2H]C([2H])(c1c[nH]c2cccc(O)c12)C([2H])([2H])[N+](C([2H])([2H])[2H])(C([2H])([2H])[2H])C([2H])([2H])[2H].[I-] [Compound 4, 4-Hydroxy-3-(2-(tris(methyl-d3)-λ^4-azaneyl)ethyl-1,1,2,2-d4)-1H-indole iodide] | significantly lower in vitro clearance | 57.7 h | 0.401 µL/min/mg |  |  |  |  |  |
| [2H]C([2H])(c1c[nH]c2cccc(O)c12)C([2H])([2H])[N+](C)(C([2H])([2H])[2H])C([2H])([2H])[2H].[I-] [Compound 5, 4-Hydroxy-3-(2-(methylbis(methyl-d3)-λ^4-azaneyl)ethyl-1,1,2,2-d4)-1H-indole iodide] | significantly lower in vitro clearance | 101 h | 0.228 µL/min/mg |  |  |  |  |  |
| [2H]C([2H])(c1c[nH]c2cccc(O)c12)C([2H])([2H])[N+](CC)(C([2H])([2H])[2H])C([2H])([2H])[2H].[I-] [Compound 6, 3-(2-(Ethylbis(methyl-d3)-λ^4-azaneyl)ethyl-1,1,2,2-d4)-4-hydroxy-1H-indole iodide] |  | 5.28 h | 4.38 µL/min/mg | significantly lower in vitro clearance |  |  |  |  |
| [2H]C([2H])(c1c[nH]c2cccc(OC(C)=O)c12)C([2H])([2H])[N+](C)(C)C.[I-] [Compound 7, 4-Acetoxy-3-(2-(trimethyl-λ^4-azaneyl)ethyl-1,1,2,2-d4)-1H-indole iodide] |  | 0.778 h | 29.7 µL/min/mg |  | exhibit differences in half-life and intrinsic clearance | Minus cofactor control low (52% of 0 min). |  |  |
| [2H]C([2H])(c1c[nH]c2cccc(OC(C)=O)c12)C([2H])([2H])[N+](C)(C)CC.[I-] [Compound 8, 4-Acetoxy-3-(2-(ethyldimethyl-λ^4-azaneyl)ethyl-1,1,2,2-d4)-1H-indole iodide] |  | 0.477 h | 48.4 µL/min/mg |  | exhibit differences in half-life and intrinsic clearance | Minus cofactor control low (37% of 0 min). |  |  |
| [2H]C([2H])(c1c[nH]c2cccc(OC(C)=O)c12)C([2H])([2H])[N+](C)(C)CCC.[I-] [Compound 9, 4-Acetoxy-3-(2-(dimethyl(propyl)-λ^4-azaneyl)ethyl-1,1,2,2-d4)-1H-indole iodide] |  | 0.312 h | 74.3 µL/min/mg |  | exhibit differences in half-life and intrinsic clearance | Minus cofactor control low (20% of 0 min). |  |  |
| [2H]C([2H])(c1c[nH]c2cccc(OC(C)=O)c12)C([2H])([2H])[N+](C([2H])([2H])[2H])(C([2H])([2H])[2H])C([2H])([2H])[2H].[I-] [Compound 10, 4-Acetoxy-3-(2-(tris(methyl-d3)-λ^4-azaneyl)ethyl-1,1,2,2-d4)-1H-indole iodide] |  | 0.775 h | 29.8 µL/min/mg |  | exhibit differences in half-life and intrinsic clearance | Minus cofactor control low (44% of 0 min). |  |  |
| [2H]C([2H])(c1c[nH]c2cccc(OC(C)=O)c12)C([2H])([2H])[N+](C)(C([2H])([2H])[2H])C([2H])([2H])[2H].[I-] [Compound 11, 4-Acetoxy-3-(2-(methylbis(methyl-d3)-λ^4-azaneyl)ethyl-1,1,2,2-d4)-1H-indole iodide] |  | 0.797 h | 29 µL/min/mg |  | exhibit differences in half-life and intrinsic clearance | Minus cofactor control low (51% of 0 min). |  |  |
| [2H]C([2H])(c1c[nH]c2cccc(OC(C)=O)c12)C([2H])([2H])[N+](CC)(C([2H])([2H])[2H])C([2H])([2H])[2H].[I-] [Compound 12, 4-Acetoxy-3-(2-(ethylbis(methyl-d3)-λ^4-azaneyl)ethyl-1,1,2,2-d4)-1H-indole iodide] |  | 0.558 h | 41.4 µL/min/mg |  | exhibit differences in half-life and intrinsic clearance | Minus cofactor control low (40% of 0 min). |  |  |
| COc1ccc2c(c1)[C@]13CCCC[C@@H]1[C@H](C2)N(C)CC3 [dextromethorphan, reference compound] |  |  |  |  |  |  | 54.9 μL/min/mg protein | 25.3 min |
| C[N+](C)(C)CCc1c[nH]c2cccc(O)c12.[I-] [reference compound A, 4-OH-Trimethyltryptamine iodide, reference compound] |  |  |  |  |  |  | 6.81 μL/min/mg protein | 204 min |
| CC[N+](C)(C)CCc1c[nH]c2cccc(O)c12.[I-] [reference compound B, 4-OH-Dimethylethyltryptamine iodide, reference compound] |  |  |  |  |  |  | 5.41 μL/min/mg protein | 256 min |
| CC(=O)Oc1cccc2[nH]cc(CC[N+](C)(C)C)c12.[I-] [reference compound D, 4-OAc-Trimethyltryptamine iodide, reference compound] |  |  |  |  |  | Minus cofactor control low (51% of 0 min). | 28.3 μL/min/mg protein | 48.9 min |
| CC[N+](C)(C)CCc1c[nH]c2cccc(OC(C)=O)c12.[I-] [reference compound E, 4-OAc-Dimethylethyltryptamine iodide, reference compound] |  |  |  |  |  | Minus cofactor control low (38% of 0 min). | 46.4 μL/min/mg protein | 29.9 min |
| CCC[N+](C)(C)CCc1c[nH]c2cccc(OC(C)=O)c12.[I-] [reference compound F, 4-OAc-Dimethylpropyltryptamine iodide, reference compound] |  |  |  |  |  | Minus cofactor control low (27% of 0 min). | 62.7 μL/min/mg protein | 22.1 min |
